Two compounds from patent US8076374B2 (Eli Lilly and Company, priority 2005, dated 2011) can be followed below.

For this test, the target named is cloned human glucagon receptor (Homo sapiens, UniProt P47871). The test is described as follows: Glucagon Receptor (hGlucR) Binding Assay.
cloned human glucagon receptor, sequence (P47871 26-477): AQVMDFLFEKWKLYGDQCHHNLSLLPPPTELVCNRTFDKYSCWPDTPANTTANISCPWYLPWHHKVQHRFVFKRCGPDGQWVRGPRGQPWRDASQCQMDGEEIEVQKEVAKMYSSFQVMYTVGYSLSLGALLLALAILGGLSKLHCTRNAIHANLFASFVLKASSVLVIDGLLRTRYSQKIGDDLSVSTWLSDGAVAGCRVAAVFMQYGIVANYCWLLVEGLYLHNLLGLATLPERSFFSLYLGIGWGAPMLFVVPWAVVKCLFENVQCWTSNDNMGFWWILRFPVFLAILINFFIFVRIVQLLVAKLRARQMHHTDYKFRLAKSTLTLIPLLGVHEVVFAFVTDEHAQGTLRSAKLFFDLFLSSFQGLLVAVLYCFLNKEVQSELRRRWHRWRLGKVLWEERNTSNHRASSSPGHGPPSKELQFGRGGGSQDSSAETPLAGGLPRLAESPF

Protocol: This plasmid DNA is transfected into 293 HEK cells and selected with 200 μg/mL Hygromycin.
Crude plasma membranes are prepared using cells from suspension culture. The cells are lysed on ice in hypotonic buffer containing 25 mM Tris HCL, pH 7.5, 1 mM MgCl2, DNAsel, 20 u/mL, and Roche Complete Inhibitors-without EDTA. The cell suspension is homogenized with a glass dounce homogenizer using a Teflon pestle for 25 strokes. The homogenate is centrifuged at 4 degrees C. at 1800×g for 15 mins. The supernate is collected and the pellet is resuspended in hypotonic buffer and rehomogenized. The mixture is centrifuged at 1800×g for 15 mins. The second supernate is combined with the first supernate. The combined supernates are recentrifuged at 1800×g for 15 mins to clarify. The clarified supernate is transferred to high speed tubes and centrifuged at 25000×g for 30 minutes at 4 degrees C. The membrane pellet is resuspended in homogenization buffer and stored as frozen aliquots at −80 degree C. freezer until needed.
The specific activity is 2200 Ci/mmol.
The binding buffer contains 25 mM Hepes, pH 7.4, 2.5 mM CaCl2, 1 mM MgCl2, 0.1% fatty acid free BSA, (ICN), 0.003% tween-20, and Roche Complete Inhibitors without EDTA. […] Test compounds are dissolved in DMSO and serially diluted in DMSO. […] Plates are read with a MicroBeta after 14 hours of settling time at room temp.

For `C=CCC(CC=C)(COc1cc(C)c(-c2ccc(C(F)(F)F)cc2)c(C)c1)c1ccc(C(=O)NCCC(=O)O)cc1`, the Ki was 87 nM.
As to `Cc1cc(OCC(c2ccc(C(=O)NCCC(=O)O)cc2)C(C)C)cc(C)c1-c1ccc(C(C)(C)C)cc1` (centres unmarked), the Ki turned out to be 61 nM.

One may read the Ki as a dissociation constant, usually derived from enzyme kinetics or from competition with a known ligand.
